Measured values: patent publication US12601718B2, “Method for pretreating ranitidine hydrochloride sample” (Hunan Institute for Drug Inspection and Testing, priority 2022, dated 2026)

Experiments:
[1] = cited from earlier work
[2] = NDMA carcinogenicity / acceptable intake from CPDB toxicological data (TD50 linear extrapolation, rodent carcinogenicity data); type: in vivo; settings: 0.0959 μg÷300 mg
Method: According to the toxicological data in the FDA according to the Carcinogenic Potency Database (CPDB database), the NDMA acceptable daily intake is set at about 0.096 μg. On Sep. 13, 2019, the FDA released a safety warning that some Ranitidine-based drugs (including the brand-name drug Zantac) contain the impurity of N-nitrosodimethylamine (NDMA). Subsequently, China launched special inspections and testing on NDMA for this variety.

[3] = cited from earlier work; remark: listed apart in the source

SMILES | NDMA acceptable daily intake ([1]; FDA, according to CPDB database) | carcinogen class ([1]; in vivo) | limit value of the impurity NDMA in Ranitidine hydrochloride capsules [2] | solubility in dichloromethane [3] | solubility in water [3]
CN(C)N=O [NDMA, N-nitrosodimethylamine] | about 0.096 μg | class-2A carcinogen | ≈ 320 ng/g | almost insoluble | readily soluble
CNC(=C[N+](=O)[O-])NCCSCc1ccc(CN(C)C)o1 [Ranitidine] | – | – | – | almost insoluble | readily soluble
